From US10632181B2, “Composition, containing RGD motif-containing peptide or fragment thereof, for treating burns and glaucoma, alleviating skin wrinkles, and promoting hair growth” (HUONS CO., LTD., priority 2014, dated 2020)
Positions of bridges follow the written chain, without caps; N, C: chain ends. No end group written: not given here.

What was measured:
[1] = tested on: optic nerve cell in the retina of glaucoma animal model; experiment: Glaucoma test: optic nerve cell in the retina (Fluorogold); format: in vivo, mouse; settings: applied to eye once daily, Fluorogold labelling
Protocol: (§1) For control drug, Taflotan eye drops (Santen Pharmaceutical Co., Ltd.) were used, and for test drug, Taflotan eye drops+HU024 (SEQ ID NO:2) (sample 1), HU024 (SEQ ID NO:2) (sample 2), HU025 (SEQ ID NO:3) (sample 3), HU026 (SEQ ID NO:4) (sample 4), and HU027 (SEQ ID NO:5) (sample 5) were used, and testing was performed on glaucoma animal model having microbead-induced elevated intraocular pressure. In experimental animal model, Rompun solution for injection and zoletil were mixed and used to put the experimental animal under anesthesia, topical anesthetic Alcaine was applied to eye, 1×106 microbead/mL 1 μL was injected into anterior chamber using micro glass needle to induce an increase in intraocular pressure for 2 weeks (IOVS 2011 Vol. 52 36-).
(§2) The control drug and 5 samples were provided to the experimental animal having the elevated intraocular pressure for 2 weeks, 5 samples were applied to eye once daily, comparative verification of efficacy was performed, and intraocular pressure reduction and optic nerve cell in the retina was observed through administration for 4 weeks.
(§3) The intraocular pressure was measured using a contact-type intraocular pressure meter Tono lab's tonometer TV02 model. […] In 5-7 days after fluorescent probe injection, the eye was enucleated and fixed in 4% paraformaldehyde at room temperature for 4 hours. The retina was separated from choroid of the fixed eye and mounted on a slide. In each experimental group slide, optic nerve cell expressing fluorescence was detected using fluorescence microscope, images were taken at a magnification of ×40 and ×200, and data was collected.

[2] = tested on: glaucoma animal model having microbead-induced elevated intraocular pressure; experiment: Glaucoma test: intraocular pressure; format: in vivo, mouse; settings: for intraocular pressure change: 20 ug/ml applied to eye once daily
Protocol: as §1, §2, §3

[3] = tested on: hair growth of C57BL/6 mouse; experiment: Hair growth test: hair growing area; format: in vivo
Protocol: (§4) This test was conducted to assess the influence on hair growth of C57BL/6 mouse when 4 types of test substances, HU024 (SEQ ID NO:2), HU025 (SEQ ID NO:3), HU026 (SEQ ID NO:4), and HU027 (SEQ ID NO:5), were applied to the skin for 14 days.
(§5) The group design was set to negative control (sterile water for injection G1), test substance HU024 (SEQ ID NO:2) 20 ug/head/day (G2), test substance HU024 (SEQ ID NO:2) 60 ug/head/day (G3), test substance HU025 (SEQ ID NO:3) 20 ug/head/day (G4), test substance HU025 (SEQ ID NO:3) 60 ug/head/day (G5), test substance HU026 (SEQ ID NO:4) 20 ug/head/day (G6), test substance HU026 (SEQ ID NO:4) 60 ug/head/day (G7), test substance HU027 (SEQ ID NO:5) 20 ug/head/day (G8), test substance HU027 (SEQ ID NO:5) 60 ug/head/day (G9) and positive control minoxyl 3% (G10) administered groups. Each group had 10 animals.
(§6) After the animal was put under anesthesia using zoletil (1 mL/kg, i.p), the back of the animal was primarily shaved using a depilator, and Veet depilatory was evenly applied on the back. After about 5 minutes, the applied site was cleaned up using gauze moistened with sterile water for injection. Only animal whose shaved back was scarlet in color was used for group separation. The test substance was applied to the same site daily once per day, 7 times per week for 14 days, and the test substance was evenly applied to the shaved site (on the back) by rubbing with a glass rod about 10 times.
The hair growing area (%) relative to the test substance-applied area was measured and determined, and Image analyzer program (Image Pro Plus ver. 6.3, Cybermetics, USA) was used to measure. […] Imaging was performed together with the measurements on the date when the hair area was measured. On the next day after the end of application, the animals were killed by CO2 gas, and hair on the hair growing area was removed by a depilator and hair weight was measured.
(§7) The measurement results were analyzed using SPSS (ver. 10.1K), Duncan t-test for weight changes was conducted through one-way analysis of variance, hair weight was compared between groups using Student's t-test, and hair growing area was compared between groups through nonparametric multiple comparison procedures Whitney-Mann methods. P<0.05 was determined to be statistically significant.

[4] = tested on: hair growth of C57BL/6 mouse; experiment: Hair growth test: hair weight; format: in vivo
Protocol: as §4, §5, §6
The hair growing area (%) relative to the test substance-applied area was measured and determined, and Image analyzer program (Image Pro Plus ver. 6.3, Cybermetics, USA) was used to measure. It was measured on the 1st, 3rd, 7th, 10th and 14th days after test substance administration. Imaging was performed together with the measurements on the date when the hair area was measured. On the next day after the end of application, the animals were killed by CO2 gas, and hair on the hair growing area was removed by a depilator and hair weight was measured.
as §7

[5] = Hair growth test: body weight; format: in vivo; settings: skin
Protocol: as §4, §5, §6
The test item was measurements of dead animal, general syndrome, weight change, hair growing area and hair weight, and comparison with negative control was conducted.
as §7

CC(C)OC(=O)CCC/C=C\C[C@@H]1[C@@H](/C=C/C(F)(F)COc2ccccc2)[C@H](O)C[C@@H]1O [Tafluprost, reference compound]
optic nerve cell death / protection [1]: protection from optic nerve cell death was observed
intraocular pressure numerical value ([2]; positive control, eye drops): 15.9±2.9 mmHg
intraocular pressure reduction as compared to negative control ([2]; positive control, eye drops): 20.89%

NH2—RPTRGDCDL—COOH (H-RPTRGDCDL-OH; listed as Homo sapiens) [HU027]
HAIR AREA (%) ([3]; 20 ug/head/day, Day 1): 0.13 ± 0.13%
HAIR AREA (%) ([3]; 20 ug/head/day, Day 4): 0.32 ± 0.14%
HAIR AREA (%) ([3]; 20 ug/head/day, Day 7): 0.44 ± 0.17%
HAIR AREA (%) ([3]; 20 ug/head/day, Day 10): 8.81 ± 3.57%
HAIR AREA (%) ([3]; 20 ug/head/day, Day 14): 56.95 ± 9.83%
HAIR AREA (%) ([3]; 60 ug/head/day, Day 1): 0.17 ± 0.11%
HAIR AREA (%) ([3]; 60 ug/head/day, Day 4): 0.33 ± 0.22%
HAIR AREA (%) ([3]; 60 ug/head/day, Day 7): 0.50 ± 0.26%
HAIR AREA (%) ([3]; 60 ug/head/day, Day 10): 8.20 ± 3.43%
HAIR AREA (%) ([3]; 60 ug/head/day, Day 14): 61.95 ± 11.30%
HAIR WEIGHTS ([4]; 20 ug/head/day for 14 days): 0.010 ± 0.003 g
HAIR WEIGHTS ([4]; 60 ug/head/day for 14 days): 0.016 ± 0.005 g
BODY WEIGHTS ([5]; 20 ug/head/day, Day 1): 21.71 ± 0.59 g
BODY WEIGHTS ([5]; 20 ug/head/day, Day 7): 23.27 ± 0.71 g
BODY WEIGHTS ([5]; 20 ug/head/day, Day 11): 23.98 ± 0.79 g
BODY WEIGHTS ([5]; 60 ug/head/day, Day 1): 21.77 ± 0.87 g
BODY WEIGHTS ([5]; 60 ug/head/day, Day 7): 23.07 ± 1.13 g
BODY WEIGHTS ([5]; 60 ug/head/day, Day 11): 23.97 ± 1.14 g

HU026 (TRGDCDLPEFCP; disulfide 5-11; listed as Homo sapiens)
HAIR AREA (%) ([3]; 20 ug/head/day, Day 1): 0.10 ± 0.05%
HAIR AREA (%) ([3]; 20 ug/head/day, Day 4): 0.13 ± 0.07%
HAIR AREA (%) ([3]; 20 ug/head/day, Day 7): 0.43 ± 0.30%
HAIR AREA (%) ([3]; 20 ug/head/day, Day 10): 7.67 ± 4.54%
HAIR AREA (%) ([3]; 20 ug/head/day, Day 14): 56.64 ± 12.26%
HAIR AREA (%) ([3]; 60 ug/head/day, Day 1): 0.07 ± 0.04%
HAIR AREA (%) ([3]; 60 ug/head/day, Day 4): 0.22 ± 0.13%
HAIR AREA (%) ([3]; 60 ug/head/day, Day 7): 0.69 ± 0.37%
HAIR AREA (%) ([3]; 60 ug/head/day, Day 10): 13.54 ± 4.75%
HAIR AREA (%) ([3]; 60 ug/head/day, Day 14): 65.41 ± 11.62%
optic nerve cell death / protection [1]: protection from optic nerve cell death was observed
intraocular pressure change [2]: the intraocular pressure did not reduce
HAIR WEIGHTS ([4]; 20 ug/head/day for 14 days): 0.021 ± 0.008 g
HAIR WEIGHTS ([4]; 60 ug/head/day for 14 days): 0.026 ± 0.007 g
BODY WEIGHTS ([5]; 20 ug/head/day, Day 1): 21.20 ± 0.77 g
BODY WEIGHTS ([5]; 20 ug/head/day, Day 7): 22.48 ± 1.12 g
BODY WEIGHTS ([5]; 20 ug/head/day, Day 11): 23.75 ± 1.27 g
BODY WEIGHTS ([5]; 60 ug/head/day, Day 1): 21.58 ± 0.61 g
BODY WEIGHTS ([5]; 60 ug/head/day, Day 7): 22.80 ± 1.03 g
BODY WEIGHTS ([5]; 60 ug/head/day, Day 11): 23.83 ± 1.30 g

NH2—RPTRGDCDLPEFCPG—COOH (H-RPTRGDCDLPEFCPG-OH; cysteine pairing not given here; listed as Homo sapiens) [HU025]
HAIR AREA (%) ([3]; 20 ug/head/day, Day 1): 0.04 ± 0.03%
HAIR AREA (%) ([3]; 20 ug/head/day, Day 4): 0.06 ± 0.05%
HAIR AREA (%) ([3]; 20 ug/head/day, Day 7): 0.47 ± 0.22%
HAIR AREA (%) ([3]; 20 ug/head/day, Day 10): 2.04 ± 0.66%
HAIR AREA (%) ([3]; 20 ug/head/day, Day 14): 39.88 ± 8.74%
HAIR AREA (%) ([3]; 60 ug/head/day, Day 1): 0.04 ± 0.04%
HAIR AREA (%) ([3]; 60 ug/head/day, Day 4): 0.42 ± 0.33%
HAIR AREA (%) ([3]; 60 ug/head/day, Day 7): 0.72 ± 0.51%
HAIR AREA (%) ([3]; 60 ug/head/day, Day 10): 19.61 ± 9.01 %
HAIR AREA (%) ([3]; 60 ug/head/day, Day 14): 75.45 ± 6.65 %
optic nerve cell death / protection [1]: protection from optic nerve cell death was observed
intraocular pressure change [2]: had an effect in reducing the intraocular pressure
intraocular pressure change ([2]; listed as sample 3): A reduction in intraocular pressure was observed
HAIR WEIGHTS ([4]; 20 ug/head/day for 14 days): 0.005 ± 0.002 g
HAIR WEIGHTS ([4]; 60 ug/head/day for 14 days): 0.021 ± 0.007 g
BODY WEIGHTS ([5]; 20 ug/head/day, Day 1): 21.20 ± 1.23 g
BODY WEIGHTS ([5]; 20 ug/head/day, Day 7): 22.63 ± 1.01 g
BODY WEIGHTS ([5]; 20 ug/head/day, Day 11): 23.77 ± 1.17 g
BODY WEIGHTS ([5]; 60 ug/head/day, Day 1): 21.53 ± 0.63 g
BODY WEIGHTS ([5]; 60 ug/head/day, Day 7): 23.20 ± 0.83 g
BODY WEIGHTS ([5]; 60 ug/head/day, Day 11): 24.23 ± 1.02 g
